One block for each compound: values may come before it.
Experiments:
[1] = test system: HCC1937 BRCA1 mutant and HCC1937 BRCA1 reconstituted cells; assay: Clonogenic growth assay (WST-1, colony counting); type: cell-based; settings: continuous treatment for 9 days, WST-1 and colony numbers
Experimental: HCC1937 BRCA1 mutant and HCC1937 BRCA1 reconstituted breast ductal carcinoma cells were cultured in RPMI-1640 medium supplemented with 10% fetal calf serum, 2 mM L-glutamine, 1 mM sodium pyruvate, 4.5 g/l glucose and 1% (v/v) penicillin/streptomycin. Status of BRCA1 was corroborated by immunoprecipitation using 50 μg nuclear extracts and 1 μg mouse monoclonal antibody MS110 (ab16780, Abcam Inc., Cambridge, MA), which is directed towards the amino-terminus of the protein. Blots were probed with BRCA1 carboxy-terminal specific mouse monoclonal antibody D9 (sc-6954, Santa Cruz Biotechnologies, Santa Cruz, CA) and, following stripping, re-probed with antibody MS110. For assays, 5000 cells in 3 ml medium were seeded per well of 6 well plates in duplicates. The day after, vehicle (DMSO) or compounds were added. After one week medium was exchanged and vehicle or compounds were re-added for an additional two days. To assess proliferation the medium in each well was replaced with 1 ml medium containing 100 μl WST-1 reagent and incubation for 20 minutes at 37°C. Of each sample 110 μl supernatant were transferred into a 96 well plate and the OD was read at 450 nm (filter at 630 nm) on a SpectraMax Plus microtiter plate reader using SoftMax Pro software (Molecular Devices). For background correction, the blank value consisted of 100 μl medium containing 10 μl WST-1. Thereafter, colonies were stained by removing medium, washing cells once with PBS and incubation with 1 ml crystal violet solution for 30 minutes at room temperature. Cells were washed twice with PBS and colonies were counted using an Artec Counter (Model 880, Artec, Dyntatech Laboratories Inc.) with diameter cut-off set to 0.2 mm. Data were expressed as growth or colony numbers relative to vehicle control treatments (100%).

topoisomerase II beta = molecular target: T1, topoisomerase II beta (Homo sapiens, UniProt Q02880); assay: Affinity precipitation with biotinylated purine analogue 2 from HL-60 nuclear extracts; type: binding; settings: for competition of the interaction of biotinylated purine analogue 2 with topoisomerase II beta: 1 μM biotinylated analogue 2, competitor in excess (10 μM), QAP 1 also at equimolar concentration
T1 construct: endogenous in cells; host or cells: HL-60 nuclear extract
T1 sequence (Q02880 whole entry): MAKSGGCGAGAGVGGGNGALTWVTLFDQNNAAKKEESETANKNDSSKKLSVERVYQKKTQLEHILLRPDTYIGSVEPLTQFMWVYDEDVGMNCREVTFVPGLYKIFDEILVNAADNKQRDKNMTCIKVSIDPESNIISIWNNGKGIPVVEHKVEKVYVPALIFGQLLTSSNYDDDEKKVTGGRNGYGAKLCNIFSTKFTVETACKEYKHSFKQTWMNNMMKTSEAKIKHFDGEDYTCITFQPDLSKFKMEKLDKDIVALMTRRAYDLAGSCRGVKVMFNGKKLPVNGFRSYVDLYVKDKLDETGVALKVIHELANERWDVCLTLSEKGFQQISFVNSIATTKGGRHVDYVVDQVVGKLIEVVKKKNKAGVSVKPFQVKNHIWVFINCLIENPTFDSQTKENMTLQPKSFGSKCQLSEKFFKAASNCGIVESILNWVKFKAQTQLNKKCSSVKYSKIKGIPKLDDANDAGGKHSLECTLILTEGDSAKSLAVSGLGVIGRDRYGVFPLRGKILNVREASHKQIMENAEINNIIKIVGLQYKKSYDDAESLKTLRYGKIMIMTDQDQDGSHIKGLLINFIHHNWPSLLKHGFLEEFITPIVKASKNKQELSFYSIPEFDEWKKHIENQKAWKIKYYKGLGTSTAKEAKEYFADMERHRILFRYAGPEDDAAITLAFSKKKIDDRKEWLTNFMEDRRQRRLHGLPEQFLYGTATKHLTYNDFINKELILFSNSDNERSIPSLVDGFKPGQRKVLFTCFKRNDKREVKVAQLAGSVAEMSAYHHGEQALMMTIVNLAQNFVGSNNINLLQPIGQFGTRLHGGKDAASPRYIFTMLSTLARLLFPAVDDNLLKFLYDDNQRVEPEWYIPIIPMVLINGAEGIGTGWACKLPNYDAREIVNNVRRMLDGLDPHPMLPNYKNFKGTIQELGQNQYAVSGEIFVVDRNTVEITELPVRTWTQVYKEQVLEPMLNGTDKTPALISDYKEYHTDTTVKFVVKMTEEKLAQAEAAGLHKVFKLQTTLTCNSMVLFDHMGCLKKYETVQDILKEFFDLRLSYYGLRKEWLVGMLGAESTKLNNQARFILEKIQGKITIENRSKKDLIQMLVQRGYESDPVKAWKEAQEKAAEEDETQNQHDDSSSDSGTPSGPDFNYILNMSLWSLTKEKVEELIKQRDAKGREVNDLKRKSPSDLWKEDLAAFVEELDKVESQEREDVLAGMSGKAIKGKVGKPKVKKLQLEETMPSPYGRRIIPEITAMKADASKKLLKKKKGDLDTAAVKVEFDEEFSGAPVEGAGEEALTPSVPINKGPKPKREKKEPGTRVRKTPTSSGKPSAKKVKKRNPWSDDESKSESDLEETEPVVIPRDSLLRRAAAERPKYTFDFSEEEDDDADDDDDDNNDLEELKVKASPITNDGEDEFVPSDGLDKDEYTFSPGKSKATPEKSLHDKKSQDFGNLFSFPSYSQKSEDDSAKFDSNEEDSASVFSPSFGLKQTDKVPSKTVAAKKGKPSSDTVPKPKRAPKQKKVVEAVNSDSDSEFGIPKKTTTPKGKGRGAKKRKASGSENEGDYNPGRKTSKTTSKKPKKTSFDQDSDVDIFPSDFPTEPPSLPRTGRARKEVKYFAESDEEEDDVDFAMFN
Experimental: (§1) Topoisomerase II α and β were affinity precipitated with biotinylated inhibitor as follows. Exponentially growing HL-60 cells were collected on ice and incubated with hypotonic buffer (10 mM HEPES pH 7.5, 1.5 mM MgCl2, 10 mM KCl, 0.5 mM DTT, 0.5 mM PMSF, 1× protease inhibitor cocktail (Complete Mini, Roche Diagnostics GmbH)) for 15 minutes, then 0.6% v/v NP-40 was added and cells were disrupted using a Dounce homogenizer. Lysates were transferred to 1.5 ml Protein LoBind Eppendorf tubes and nuclei were collected after centrifugation at 8000 rpm for 10 minutes and washed twice with hypotonic buffer. To extract and release chromatin associated topoisomerase II nuclei were incubated for 30 minutes in DNAse buffer (20 mM Tris HCl pH 7.5, 5 mM MgCl2, 1 mM CaCl2, 25 mM NaCl, 0.5 mM EDTA, 1% NP-40, 1 mM DTT, 1 × protease inhibitor cocktail, 0.1 mM PMSF) containing 40 U DNAse I (Roche Diagnostics GmbH) followed by addition of twice concentrated nuclear extraction buffer (20 mM HEPES pH 7.5, 3 mM MgCl2, 20 mM KCl, 50 mM β-glycerophosphate, 840 mM NaCl, 1 mM EDTA, 50 mM PNPP, 1 mM DTT, 1 mM PMSF) and rotation for 1 h in the coldroom. The soluble fraction was obtained following centrifugation at 13000 rpm for 15 minutes. 25 μg nuclear extract were used for the affinity precipitation. The salt concentration was adjusted to 150 mM with nuclear extraction buffer (without NaCl) and the sample volume was toped off to 200 μl with precipitation buffer (50 mM HEPES pH 7.4, 150 mM NaCl, 25 mM β-glycerophosphate, 25 mM NaF, 5 mM EGTA, 1 mM EDTA, 15 mM PPI, 1 mM PMSF). Compounds were preincubated for 30 minutes prior addition of biotinylated purine analogue 2 for 2 h. Streptavidin agarose beads (Novagen, 69203) were washed twice with PBS, blocked for 30 minutes with PBS containing 1% BSA, washed twice with PBS and finally with precipitation buffer. 40 μl equilibrated streptavidin agarose beads were added to the sample and incubation was continued for 1 h. Beads were pelleted by centrifugation at 7000 rpm for 5 minutes and washed thrice with precipitation buffer. During the last wash the beads were transferred to a new tube and the bound fraction was released by boiling for 5 minutes in Laemmli sample buffer. Topoisomerase II α and β were detected by Western blot as described below.

topoisomerase II alpha [2] = molecular target: T2, topoisomerase II alpha (Homo sapiens, UniProt P11388); assay: as above; type: binding; design: endogenous in cells; host or cells: HL-60 nuclear extract; settings: for competition of the interaction of biotinylated purine analogue 2 with topoisomerase II alpha: 1 μM biotinylated analogue 2, competitor in excess (10 μM), QAP 1 also at equimolar concentration
T2 sequence (P11388 whole entry): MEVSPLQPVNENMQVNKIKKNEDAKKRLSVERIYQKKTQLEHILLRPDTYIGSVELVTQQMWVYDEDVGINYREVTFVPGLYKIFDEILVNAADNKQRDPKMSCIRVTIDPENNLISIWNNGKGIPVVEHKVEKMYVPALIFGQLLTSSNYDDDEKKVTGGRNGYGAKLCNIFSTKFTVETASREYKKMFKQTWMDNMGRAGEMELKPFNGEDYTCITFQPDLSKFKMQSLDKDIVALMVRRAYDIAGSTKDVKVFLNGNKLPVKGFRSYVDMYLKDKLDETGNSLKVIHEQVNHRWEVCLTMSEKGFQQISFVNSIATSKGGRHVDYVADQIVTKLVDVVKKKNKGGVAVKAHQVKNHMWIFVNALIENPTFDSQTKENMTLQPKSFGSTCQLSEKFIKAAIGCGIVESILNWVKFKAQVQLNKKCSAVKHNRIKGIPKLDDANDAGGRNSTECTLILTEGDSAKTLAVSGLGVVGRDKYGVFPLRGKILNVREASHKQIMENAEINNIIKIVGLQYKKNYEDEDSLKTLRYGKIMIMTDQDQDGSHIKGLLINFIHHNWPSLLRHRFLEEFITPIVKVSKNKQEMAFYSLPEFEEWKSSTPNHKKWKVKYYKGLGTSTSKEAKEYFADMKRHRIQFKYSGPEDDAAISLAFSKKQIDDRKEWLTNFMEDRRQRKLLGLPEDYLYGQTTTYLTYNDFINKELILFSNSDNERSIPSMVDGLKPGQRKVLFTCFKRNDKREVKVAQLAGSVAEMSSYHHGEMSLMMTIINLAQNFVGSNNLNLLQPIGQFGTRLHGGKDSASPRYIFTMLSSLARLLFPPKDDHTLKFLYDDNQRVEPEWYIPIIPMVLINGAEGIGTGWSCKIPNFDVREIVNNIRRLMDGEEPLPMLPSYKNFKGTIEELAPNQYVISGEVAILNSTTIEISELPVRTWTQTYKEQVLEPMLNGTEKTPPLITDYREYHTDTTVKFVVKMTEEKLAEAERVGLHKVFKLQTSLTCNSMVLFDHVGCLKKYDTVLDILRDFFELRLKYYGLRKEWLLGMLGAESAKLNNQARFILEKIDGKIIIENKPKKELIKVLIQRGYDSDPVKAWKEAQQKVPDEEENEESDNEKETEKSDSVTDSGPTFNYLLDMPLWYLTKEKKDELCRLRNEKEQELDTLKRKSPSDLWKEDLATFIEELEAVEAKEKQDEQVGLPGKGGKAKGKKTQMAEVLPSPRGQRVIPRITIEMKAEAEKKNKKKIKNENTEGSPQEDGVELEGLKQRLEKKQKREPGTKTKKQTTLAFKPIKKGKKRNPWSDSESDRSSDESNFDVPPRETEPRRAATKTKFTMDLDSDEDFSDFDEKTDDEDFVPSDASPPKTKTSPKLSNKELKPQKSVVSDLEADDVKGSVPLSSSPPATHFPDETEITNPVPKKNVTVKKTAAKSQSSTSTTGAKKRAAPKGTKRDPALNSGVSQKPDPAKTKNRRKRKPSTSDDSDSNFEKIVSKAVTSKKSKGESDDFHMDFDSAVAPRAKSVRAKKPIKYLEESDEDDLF
Experimental: as §1

topoisomerase II alpha [3] = molecular target: T2, topoisomerase II alpha; assay: DNA-dependent ATPase assay (malachite green); type: biochemical; design: screened in an ATPase assay using purified full length tagged human topoisomerase II alpha; made in house; host or cells: Sf21 insect cells, baculovirus (pFastBac1)
Experimental: DNA-dependent ATP hydrolysis of human topoisomerase II α was monitored by measuring the production of inorganic phosphate using acidic molybdate and malachite green. Specific ATPase activity of every batch was tested in a time-course to determine optimal incubation times and enzyme concentrations within the linear range of the assay. Reactions thus contained 10 – 40 nM topoisomerase II (dimer concentration) in reaction buffer (10 mM Tris HCl pH 7.5, 175 mM KCl, 0.1 mM EDTA, 5 mM MgCl2, 2 mM DTT, 2.5% glycerol and 1.7 nM supercoiled pUC18). The specific activity of the human topoisomerase II α enzyme measured in the ATPase assay was 0.24 μmol PO4·min^-1·mg^-1. […] Compounds at the indicated concentrations were added as serial dilutions prepared in DMSO and preincubated for 10 minutes at 37°C on an orbital shaker. Reactions were started by the addition of 400 μM ATP (Sigma, catalog number A2383) and allowed to proceed for 30 minutes. Reactions were terminated by the addition of 200 μl malachite green reagent and the OD was read immediately at 630 nm on a SpectraMax Plus microtiter plate reader using SoftMax Pro software (Molecular Devices). For kinetic analysis, reactions were carried out in duplicate as described above either in the presence of vehicle (DMSO) or QAP 1. Following a preincubation for 5 minutes, ATP was added at the indicated concentrations to start the reactions, which were allowed to proceed for 17 minutes before stopping and reading as above. From these values the OD values obtained at each respective ATP concentration without enzyme were subtracted for background correction. […] A compromise was found by carrying out the competition experiments with a single concentration of the inhibitor that gave a good inhibition of enzyme activity while keeping a measurable signal. The equations used to fit these experiments are: […]
Each competition experiment was fitted (Grafit version 5.04 – Erithacus Software) with these 3 equations and the models that gave unrealistic inhibition constants (above 10 mM) and/or large standard errors (similar to the value of the fitted parameter) were rejected. Then, the F-test was carried out to identify the best fitting model. An alternative method was used to determine the mode of action of the inhibitor. Dose-response experiments were carried out at different ATP concentrations and the corresponding IC50s determined. According to the Cheng-Prusoff equation for linear competitive inhibition: […]
The IC50 of a competitive inhibitive inhibitor should increase in a linear fashion with the concentration of ATP. The measured IC50s were then plotted in function of the ATP concentrations and linear regression analyses were carried out. […] Mean Km and Vmax values were calculated from two independent experiments.

[4] = 1 μM biotinylated compound, HL-60 nuclear extracts

Compound: C=CCNC1=C2C[C@@H](C)C[C@H](OC)[C@H](O)[C@@H](C)/C=C(\C)[C@H](OC(N)=O)[C@@H](OC)/C=C\C=C(/C)C(=O)NC(=CC1=O)C2=O [17-AAG, reference compound]
sensitivity of BRCA1 mutant versus BRCA1 reconstituted HCC1937 cells [1]: to a similar extent

pull down of topoisomerase II beta by biotinylated compound (topoisomerase II beta; [4]): pull down | pull down of topoisomerase II alpha by biotinylated compound (topoisomerase II alpha [2]; [4]): pull down
Compound: CCc1nc2c(NC(C)(C)C)nc(Nc3ccc4nc(OCCN5CCN(C(=O)CCOCCOCCOCCNC(=O)CCCC[C@@H]6SC[C@@H]7NC(=O)N[C@@H]76)CC5)sc4c3)nc2[nH]1 [purine analogue 2]

competition of the interaction of biotinylated purine analogue 2 with topoisomerase II beta (topoisomerase II beta): lost | IC50 (topoisomerase II alpha [3]; full length tagged human topoisomerase II alpha, 400 μM ATP): 432 ± 30 nM | competition of the interaction of biotinylated purine analogue 2 with topoisomerase II alpha (topoisomerase II alpha [2]): lost
Compound: CCc1nc2c(NC(C)(C)C)nc(Nc3ccc4ncsc4c3)nc2[nH]1 [purine analogue 3]

competition of the interaction of biotinylated purine analogue 2 with topoisomerase II beta (topoisomerase II beta): not | activity in the ATPase assays (topoisomerase II alpha [3]; result in words): inactive | competition of the interaction of biotinylated purine analogue 2 with topoisomerase II alpha (topoisomerase II alpha [2]): not
Compound: CCc1nc2c(N3CCSCC3)nc(Nc3ccc4ncsc4c3)nc2[nH]1 [purine analogue 4]
